In US11142588B2, “Polypeptides which bind C-X-C chemokine receptor type 4 (CXCR4) and methods of treating or reducing the risk of fibrosis and cancer” (AdAlta Limited, priority 2015, dated 2021):

Experiments:
[1] = Laser induced choroidal neovascularisation model; format: in vivo, mouse
Description: The laser induced choroidal neovascularisation (CNV) is a well characterised and accepted model of choroidal neovascularisation (Fletcher E L et al. (2011) Prog Mol Biol Transl Sci 100:211-286). It is also a rapid method for determining the efficacy of potential treatments that target angiogenesis and fibrosis. Briefly, up to four laser spots are applied to the posterior eye using a continuous wave photocoagulation laser ([…] diode). The laser energy is high enough to create a break in Bruch's membrane. During the following 7-14 days, growth of blood vessels from the choroid into the retina occurs, and is quantified either immuocytochemically, or using fluorescein angiography.
Mice were treated as below: • Group 1 (n=10): laser both eyes-vehicle in one eye; i-body in the other • Group 2 (n=10): Laser one eye (no i-body); other eye unlasered. • The i-body drug was injected intravitreally in 1 μl volume at a concentration up to 20 mg/ml.
The expression of genes associated with angiogenesis and fibrosis was examined. Total RNA was isolated from the retina and RPE/choroidal samples using commercial spin columns (RNeasy, Qiagen, Valencia Calif.). A PCR gene array was used to assess the expression of 84 genes involved angiogenesis or fibrosis (Qiagen). Briefly, total RNA samples from untreated, laser treated eyes and untreated fellow eyes (n=9 each group, each 25 ng) were pooled within their respective treatment groups (3 independent experiments containing 3 pooled samples), reversed transcribed (RT2 first strand, Qiagen) and then underwent pre-amplification of the cDNA target templates (RT2 pre-AMP, Qiagen). Samples were added to a commercial mastermix (RT2 SYBR green mastermix, Qiagen) and amplified for 40 cycles (ABI 7900HT, Life Technologies, Grand Island N.Y.). Three independent arrays were performed for each treatment group. The data were analysed using delata delta Ct (ΔΔCt), expressed as fold change and regulation assessed using an unpaired t-test.

[2] = test system: normal and IPF lung fibroblasts; assay: Wound healing invasion assay of lung fibroblasts; format: cell-based, human; settings: 130 μg/ml
Procedure, shortened: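 Normal and slow- or rapid-progressing IPF lung fibroblasts were plated overnight on basement membrane extract (50 μg/ml coating), then overlaid with BME polymerised at 37° C for 15 min. Wound invasion was imaged every 2 h for about 50 h and quantified by image analysis.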

human CD34+CD38− HSC = assay: In vitro flow cytometric binding to HSC; format: cell-based; settings: 10 μg/ml; for binding to human Cord Blood HSC: in decreasing avidity
Description: To determine whether CXCR4 i-bodies bind HSC, in vitro binding analysis to human CD34+CD38^− cells was assessed. Umbilical cord blood (CB) and human bone marrow (BM) were collected as previously described (Nilsson S K et al, 2005 15; 106(4):1232-9; Grassinger, 2009 2; 114(1):49-59). Enriched human BM CD34+ cells and purified CB CD34^+ cells were isolated as previously described (Grassinger, 2009). Human CB and BM CD34+ cells and huNSG BM were stained sequentially with CXCR4 i-bodies (10 μg/ml), anti-His-PE and an antibody cocktail containing CD34-FITC (BD Biosciences #348053) and CD38-BV421 (BD Horizon #562444), washed with PBS (0.5% BSA) and analysed by flow cytometry on a Cytopeia Influx (BD) as previously described (Grassinger, 2009). For analysis of human and murine BM and PB, up to 5×10^6 cells were analyzed at 10-20,000 cells/sec. Data were analyzed using FlowJo 10 software (FlowJo, LLC). For analysis of huNSG BM, huCD45-PECy7 (BD Biosciences #557748) and muCD45-BUV395 (BD Biosciences #564279) were also included in the antibody cocktail. HSC from human CB and BM were defined as CD34+CD38− and HSC from huNSG mice were defined as muCD45^−huCD45^+CD34^+CD38^−. CB and BM samples from 3 individual donors and BM from 3 individual huNSG mice were assessed.

CXCR4 [3] = target: T1, CXCR4 (Homo sapiens, UniProt P61073); assay: HitHunter cAMP assay in antagonist mode; format: cell-based; settings: SDF-1 at EC80, forskolin 15 μM, read-out: cAMP inhibition IC50
T1 sequence (P61073 whole entry): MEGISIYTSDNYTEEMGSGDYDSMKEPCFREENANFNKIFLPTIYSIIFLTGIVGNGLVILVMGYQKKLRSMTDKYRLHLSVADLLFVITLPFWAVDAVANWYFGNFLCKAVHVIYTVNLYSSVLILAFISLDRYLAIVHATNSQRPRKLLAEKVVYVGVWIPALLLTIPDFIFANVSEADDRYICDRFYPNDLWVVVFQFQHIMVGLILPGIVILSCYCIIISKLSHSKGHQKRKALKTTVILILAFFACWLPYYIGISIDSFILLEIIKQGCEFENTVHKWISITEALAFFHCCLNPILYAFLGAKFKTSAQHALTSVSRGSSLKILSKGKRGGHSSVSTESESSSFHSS

CXCR4 [4] = target: T1, CXCR4; assay: Calcium flux assay (Screen Quest Fluo-8, FLIPR) in antagonist mode; format: cell-based; settings: SDF-1 at EC80
[5] = intravitreal, 1 μl up to 20 mg/ml

| binding to human Cord Blood HSC (human CD34+CD38− HSC) | IC50 (CXCR4 [3]) [nM] | Calcium Inhibition EC50 (CXCR4 [4]) | Molecule | pro-fibrotic gene expression in treated eyes ([1]; PCR gene array) | contraction of the lasered retinal regions [1, 5] | pathological angiogenesis / lesion size [1, 5] | invasion of normal lung fibroblasts [2] | migration of IPF lung fibroblasts ([2]; slow and rapid IPF progressors) | binding to human Bone Marrow HSC and Bone Marrow from huNSG mice (human CD34+CD38− HSC) |
| --- | --- | --- | --- | --- | --- | --- | --- | --- | --- |
| effectively bound |  |  | AM3-114: affinity matured CXCR4 i-body, SEQ ID NO: 40 | extensive down regulation of pro fibrotic genes | significant reduction in the contraction | reduction of the lesion size | neither i-body had any effect | specifically inhibited migration | effectively bound |
| effectively bound | 225 | uM | AM3-523: affinity matured CXCR4 i-body, SEQ ID NO: 56 (protein, protein sequence encoding AM3-523) LQVDIVPSQGEISVGESKFFLCQVAGSGSHMRISWFSPNGEKLTPNQQRISVVWNDDSSSTLTIYNANIDDAGIYKCVVWVGGYRHRALVLGEATVNVKIFQ |  |  |  |  |  |  |
